PubChem BioAssay (NCI)
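Cultured in 96-well plates, cells were exposed to test compound for 48 hours across five concentrations. TGI marks complete inhibition of growth.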

Tests used:
Test in all cases: NCI anticancer screen, dose series, 48 h
786-0 renal = test system: 786-0 renal
A549 NSCLC = test system: A549 NSCLC
ACHN renal = test system: ACHN renal
BT-549 breast = test system: BT-549 breast
CAKI-1 renal = test system: CAKI-1 renal
CCRF-CEM leukemia = test system: CCRF-CEM leukemia
COLO 205 colon = test system: COLO 205 colon
DU-145 prostate = test system: DU-145 prostate
EKVX NSCLC = test system: EKVX NSCLC
HCC-2998 colon = test system: HCC-2998 colon
HCT-116 colon = test system: HCT-116 colon
HCT-15 colon = test system: HCT-15 colon
HL-60(TB) leukemia = test system: HL-60(TB) leukemia
HOP-62 NSCLC = test system: HOP-62 NSCLC
HOP-92 NSCLC = test system: HOP-92 NSCLC
HT29 colon = test system: HT29 colon
IGROV1 ovarian = test system: IGROV1 ovarian
K-562 leukemia = test system: K-562 leukemia
KM12 colon = test system: KM12 colon
LOX IMVI melanoma = test system: LOX IMVI melanoma
M14 melanoma = test system: M14 melanoma
MALME-3M melanoma = test system: MALME-3M melanoma
MCF7 breast = test system: MCF7 breast
MDA-MB-231 breast = test system: MDA-MB-231 breast
MDA-MB-435 = test system: MDA-MB-435
MDA-N = test system: MDA-N
MOLT-4 leukemia = test system: MOLT-4 leukemia
NCI-H226 lung = test system: NCI-H226 lung
NCI-H23 lung = test system: NCI-H23 lung
NCI-H460 lung = test system: NCI-H460 lung
NCI-H522 lung = test system: NCI-H522 lung
NCI/ADR-RES ovarian = test system: NCI/ADR-RES ovarian
OVCAR-3 ovarian = test system: OVCAR-3 ovarian
OVCAR-4 ovarian = test system: OVCAR-4 ovarian
OVCAR-5 ovarian = test system: OVCAR-5 ovarian
OVCAR-8 ovarian = test system: OVCAR-8 ovarian
PC-3 prostate = test system: PC-3 prostate
RPMI-8226 leukemia = test system: RPMI-8226 leukemia
RXF 393 renal = test system: RXF 393 renal
SF-268 CNS = test system: SF-268 CNS
SF-295 CNS = test system: SF-295 CNS
SF-539 CNS = test system: SF-539 CNS
SK-MEL-2 melanoma = test system: SK-MEL-2 melanoma
SK-MEL-28 melanoma = test system: SK-MEL-28 melanoma
SK-MEL-5 melanoma = test system: SK-MEL-5 melanoma
SK-OV-3 ovarian = test system: SK-OV-3 ovarian
SN12C renal = test system: SN12C renal
SNB-19 CNS = test system: SNB-19 CNS
SNB-75 CNS = test system: SNB-75 CNS
SR leukemia = test system: SR leukemia
SW-620 colon = test system: SW-620 colon
T-47D breast = test system: T-47D breast
TK-10 renal = test system: TK-10 renal
U251 CNS = test system: U251 CNS
UACC-257 melanoma = test system: UACC-257 melanoma
UO-31 renal = test system: UO-31 renal
A498 renal = test system: A498 renal
HS 578T breast = test system: HS 578T breast
UACC-62 melanoma = test system: UACC-62 melanoma

## Cc1cc(C)nc(NS(=O)(=O)c2ccc(NNc3c4ccccc4nc4c(C(=O)Nc5ccc(S(=O)(=O)N=C(N)N)cc5)cccc34)cc2)n1
786-0 renal
  TGI: > 100 µM
A549 NSCLC
  TGI: > 100 µM
ACHN renal
  TGI: > 100 µM
BT-549 breast
  TGI: > 100 µM
CAKI-1 renal
  TGI: > 100 µM
CCRF-CEM leukemia
  TGI: 98 µM
COLO 205 colon
  TGI: > 100 µM
DU-145 prostate
  TGI: > 100 µM
EKVX NSCLC
  TGI: > 100 µM
HCC-2998 colon
  TGI: > 100 µM
HCT-116 colon
  TGI: > 100 µM
HCT-15 colon
  TGI: > 100 µM
HL-60(TB) leukemia
  TGI: > 100 µM
HOP-62 NSCLC
  TGI: > 100 µM
HOP-92 NSCLC
  TGI: > 100 µM
HT29 colon
  TGI: 77.7 µM
IGROV1 ovarian
  TGI: > 100 µM
K-562 leukemia
  TGI: > 100 µM
KM12 colon
  TGI: > 100 µM
LOX IMVI melanoma
  TGI: > 100 µM
M14 melanoma
  TGI: > 100 µM
MALME-3M melanoma
  TGI: > 100 µM
MCF7 breast
  TGI: > 100 µM
MDA-MB-231 breast
  TGI: > 100 µM
MDA-MB-435
  TGI: > 100 µM
MDA-N
  TGI: > 100 µM
MOLT-4 leukemia
  TGI: > 100 µM
NCI-H226 lung
  TGI: > 100 µM
NCI-H23 lung
  TGI: > 100 µM
NCI-H460 lung
  TGI: > 100 µM
NCI-H522 lung
  TGI: > 100 µM
NCI/ADR-RES ovarian
  TGI: > 100 µM
OVCAR-3 ovarian
  TGI: 96.8 µM
OVCAR-4 ovarian
  TGI: > 100 µM
OVCAR-5 ovarian
  TGI: > 100 µM
OVCAR-8 ovarian
  TGI: > 100 µM
PC-3 prostate
  TGI: > 100 µM
RPMI-8226 leukemia
  TGI: > 100 µM
RXF 393 renal
  TGI: > 100 µM
SF-268 CNS
  TGI: > 100 µM
SF-295 CNS
  TGI: > 100 µM
SF-539 CNS
  TGI: > 100 µM
SK-MEL-2 melanoma
  TGI: 61.5 µM
SK-MEL-28 melanoma
  TGI: 85 µM
SK-MEL-5 melanoma
  TGI: > 100 µM
SK-OV-3 ovarian
  TGI: > 100 µM
SN12C renal
  TGI: > 100 µM
SNB-19 CNS
  TGI: > 100 µM
SNB-75 CNS
  TGI: > 100 µM
SR leukemia
  TGI: 76.1 µM
SW-620 colon
  TGI: > 100 µM
T-47D breast
  TGI: > 100 µM
TK-10 renal
  TGI: > 100 µM
U251 CNS
  TGI: 96.8 µM
UACC-257 melanoma
  TGI: > 100 µM
UO-31 renal
  TGI: > 100 µM

## COC(=O)c1c(O)c2c(c3c1OC(C)(C)CC3)OC(C)(C)CC2
786-0 renal
  TGI: 31.1 µM
A498 renal
  TGI: 34.4 µM
A549 NSCLC
  TGI: 42.7 µM
ACHN renal
  TGI: 32.3 µM
BT-549 breast
  TGI: 37.2 µM
CAKI-1 renal
  TGI: 53.9 µM
CCRF-CEM leukemia
  TGI: 55.6 µM
COLO 205 colon
  TGI: 28.2 µM
DU-145 prostate
  TGI: 74.7 µM
EKVX NSCLC
  TGI: 45.8 µM
HCC-2998 colon
  TGI: 31.2 µM
HCT-116 colon
  TGI: 30.4 µM
HCT-15 colon
  TGI: 35.5 µM
HL-60(TB) leukemia
  TGI: 40.3 µM
HOP-62 NSCLC
  TGI: 42.7 µM
HS 578T breast
  TGI: 47.2 µM
HT29 colon
  TGI: 31.4 µM
IGROV1 ovarian
  TGI: 42.8 µM
K-562 leukemia
  TGI: 69.8 µM
KM12 colon
  TGI: 31.6 µM
M14 melanoma
  TGI: 41 µM
MALME-3M melanoma
  TGI: 20.9 µM
MCF7 breast
  TGI: 33.1 µM
MDA-MB-231 breast
  TGI: 30 µM
MDA-N
  TGI: 51.9 µM
MOLT-4 leukemia
  TGI: 56.1 µM
NCI-H226 lung
  TGI: 35.9 µM
NCI-H23 lung
  TGI: 43.4 µM
NCI-H460 lung
  TGI: 50.6 µM
NCI-H522 lung
  TGI: 34.2 µM
NCI/ADR-RES ovarian
  TGI: 56.2 µM
OVCAR-3 ovarian
  TGI: 36.3 µM
OVCAR-4 ovarian
  TGI: 97.7 µM
OVCAR-5 ovarian
  TGI: 35.2 µM
OVCAR-8 ovarian
  TGI: 33.3 µM
PC-3 prostate
  TGI: 35.7 µM
SF-268 CNS
  TGI: 60.7 µM
SF-295 CNS
  TGI: 32.2 µM
SF-539 CNS
  TGI: 36 µM
SK-MEL-28 melanoma
  TGI: 68.8 µM
SK-MEL-5 melanoma
  TGI: 28.2 µM
SK-OV-3 ovarian
  TGI: 77.1 µM
SN12C renal
  TGI: 32.6 µM
SNB-19 CNS
  TGI: 34.9 µM
SW-620 colon
  TGI: 32.1 µM
T-47D breast
  TGI: 39.5 µM
U251 CNS
  TGI: 29.6 µM
UACC-257 melanoma
  TGI: 50.8 µM
UACC-62 melanoma
  TGI: 40 µM
UO-31 renal
  TGI: 37.4 µM

## COc1cc(/C=C2/SC(c3ccccc3)N(c3cc(Cl)ccc3Cl)C2=O)cc(OC)c1OC (configuration not stated)
786-0 renal
  TGI: > 100 µM
A498 renal
  TGI: > 100 µM
A549 NSCLC
  TGI: > 100 µM
ACHN renal
  TGI: > 100 µM
BT-549 breast
  TGI: > 100 µM
CAKI-1 renal
  TGI: 90.8 µM
CCRF-CEM leukemia
  TGI: > 100 µM
COLO 205 colon
  TGI: > 100 µM
DU-145 prostate
  TGI: > 100 µM
EKVX NSCLC
  TGI: > 100 µM
HCC-2998 colon
  TGI: > 100 µM
HCT-116 colon
  TGI: > 100 µM
HCT-15 colon
  TGI: > 100 µM
HL-60(TB) leukemia
  TGI: > 100 µM
HOP-62 NSCLC
  TGI: > 100 µM
HOP-92 NSCLC
  TGI: > 100 µM
HT29 colon
  TGI: > 100 µM
IGROV1 ovarian
  TGI: > 100 µM
K-562 leukemia
  TGI: > 100 µM
KM12 colon
  TGI: > 100 µM
LOX IMVI melanoma
  TGI: > 100 µM
M14 melanoma
  TGI: > 100 µM
MALME-3M melanoma
  TGI: > 100 µM
MCF7 breast
  TGI: > 100 µM
MDA-MB-231 breast
  TGI: > 100 µM
MDA-MB-435
  TGI: 61.1 µM
MDA-N
  TGI: 37.6 µM
MOLT-4 leukemia
  TGI: > 100 µM
NCI-H226 lung
  TGI: > 100 µM
NCI-H23 lung
  TGI: > 100 µM
NCI-H460 lung
  TGI: > 100 µM
NCI-H522 lung
  TGI: > 100 µM
NCI/ADR-RES ovarian
  TGI: > 100 µM
OVCAR-3 ovarian
  TGI: > 100 µM
OVCAR-4 ovarian
  TGI: > 100 µM
OVCAR-5 ovarian
  TGI: > 100 µM
OVCAR-8 ovarian
  TGI: > 100 µM
PC-3 prostate
  TGI: > 100 µM
RPMI-8226 leukemia
  TGI: > 100 µM
RXF 393 renal
  TGI: > 100 µM
SF-295 CNS
  TGI: > 100 µM
SK-MEL-2 melanoma
  TGI: > 100 µM
SK-MEL-28 melanoma
  TGI: > 100 µM
SK-MEL-5 melanoma
  TGI: > 100 µM
SK-OV-3 ovarian
  TGI: > 100 µM
SN12C renal
  TGI: > 100 µM
SNB-19 CNS
  TGI: > 100 µM
SNB-75 CNS
  TGI: > 100 µM
SR leukemia
  TGI: > 100 µM
SW-620 colon
  TGI: > 100 µM
T-47D breast
  TGI: > 100 µM
TK-10 renal
  TGI: > 100 µM
U251 CNS
  TGI: > 100 µM
UACC-257 melanoma
  TGI: > 100 µM
UACC-62 melanoma
  TGI: > 100 µM
UO-31 renal
  TGI: > 100 µM
